From the supplement of paper PMC10307832

Key:
Assay in all cases: relative viability (nuclei count vs DMSO), 5 days (fraction); higher = more cells survive
[1] = compound: C1COCCN1C2=NC(=NC3=C2OC4=C3C=CC=N4)C5=CC(=CC=C5)NC(=O)C6=CN=C(C=C6)N + CS(=O)(=O)N1CCN(Cc2cc3nc(-c4cccc5[nH]ncc45)nc(N4CCOCC4)c3s2)CC1 [Pictilisib] (partner 1 µM)
Method in brief: (§1)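 Each reported value is a median over duplicate plates. It expresses relative viability: treated-well nuclei count divided by vehicle-well nuclei count. Lung cancer cell lines in 1536-well plates were dosed by pin tool a day after seeding, alone with one drug or with a fixed anchor-drug dose plus five library-drug doses (not always all listed) in √10 steps, and nuclei were counted after 5 days.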

Entinostat + Pictilisib = compound: Nc1ccccc1NC(=O)c1ccc(CNC(=O)OCc2cccnc2)cc1 [Entinostat] + CS(=O)(=O)N1CCN(Cc2cc3nc(-c4cccc5[nH]ncc45)nc(N4CCOCC4)c3s2)CC1 [Pictilisib] (partner 1 µM)
Method in brief: as §1

SGI-1776 + Pictilisib = compound: CN1CCC(CNc2ccc3ncc(-c4cccc(OC(F)(F)F)c4)n3n2)CC1 [SGI-1776] + CS(=O)(=O)N1CCN(Cc2cc3nc(-c4cccc5[nH]ncc45)nc(N4CCOCC4)c3s2)CC1 [Pictilisib] (partner 1 µM)
Method in brief: as §1

[2] = compound: C1COCCN1C2=NC(=NC3=C2OC4=C3C=CC=N4)C5=CC(=CC=C5)NC(=O)C6=CN=C(C=C6)N + Nc1ncn([C@H]2C[C@H](O)[C@@H](CO)O2)c(=O)n1 [Decitabine] (partner 2 µM)
Method in brief: as §1

Row | Cell Line | relative viability ([1]; first compound 0.02 µM) | relative viability ([1]; first compound 0.06325 µM) | relative viability ([1]; first compound 0.2 µM) | relative viability ([1]; first compound 0.6325 µM) | relative viability ([1]; first compound 2 µM) | relative viability (Entinostat + Pictilisib; first compound 0.02 µM) | relative viability (Entinostat + Pictilisib; first compound 0.06325 µM) | relative viability (Entinostat + Pictilisib; first compound 0.2 µM) | relative viability (Entinostat + Pictilisib; first compound 0.6325 µM) | relative viability (Entinostat + Pictilisib; first compound 2 µM) | relative viability (SGI-1776 + Pictilisib; first compound 0.08 µM) | relative viability (SGI-1776 + Pictilisib; first compound 0.8 µM) | relative viability (SGI-1776 + Pictilisib; first compound 2.53 µM) | relative viability (SGI-1776 + Pictilisib; first compound 8 µM) | relative viability ([2]; first compound 0.02 µM) | relative viability ([2]; first compound 0.06325 µM) | relative viability ([2]; first compound 0.2 µM) | relative viability ([2]; first compound 0.6325 µM) | relative viability ([2]; first compound 2 µM)
1 | NCI-H2085 | 0.441 | 0.474 | 0.464 | 0.446 | 0.421 | 0.477 | 0.388 | 0.378 | 0.382 | 0.403 | 0.533 | 0.505 | 0.53 | 0.356 | 0.486 | 0.626 | 0.57 | 0.649 | 0.559
2 | PC-14 | 0.903 | 1.05 | 0.512 | 0.558 | 0.261 | 0.602 | 0.516 | 0.5 | 0.189 | 0.0672 | 0.667 | 0.681 | 0.747 | 0.195 | 0.182 | 0.26 | 0.226 | 0.295 | 0.173
3 | NCI-H1355 | 0.336 | 0.424 | 0.413 | 0.423 | 0.459 | 0.473 | 0.411 | 0.389 | 0.254 | 0.201 | 0.488 | 0.494 | 0.439 | 0.364 | 0.377 | 0.374 | 0.372 | 0.43 | 0.418
4 | NCI-H1650 | 0.505 | 0.588 | 0.526 | 0.592 | 0.483 | 0.65 | 0.67 | 0.554 | 0.407 | 0.248 | 0.586 | 0.542 | 0.355 | 0.146 | 0.415 | 0.401 | 0.58 | 0.661 | 0.461
5 | NCI-H727 | 0.298 | 0.335 | 0.342 | 0.412 | 0.285 | 0.357 | 0.355 | 0.689 | 0.2 | 0.219 | 0.398 | 0.626 | 0.376 | 0.285 | 0.884 | 0.851 | 0.785 | 1 | 0.862
6 | NCI-H1755 | 0.481 | 0.494 | 0.377 | 0.405 | 0.357 | 0.383 | 0.408 | 0.367 | 0.204 | 0.205 | 0.386 | 0.442 | 0.367 | 0.299 | 0.693 | 0.71 | 0.714 | 0.722 | 0.628
7 | NCI-H1651 | 0.621 | 0.608 | 0.68 | 0.567 | 0.31 | 0.624 | 0.674 | 0.572 | 0.452 | 0.365 | 0.671 | 0.559 | 0.421 | 0.432 | 0.65 | 0.643 | 0.614 | 0.66 | 0.568
8 | NCI-H647 | 0.465 | 0.483 | 0.418 | 0.353 | 0.339 | 0.508 | 0.755 | 0.469 | 0.314 | 0.093 | 0.474 | 0.434 | 0.247 | 0.219 | 0.524 | 0.478 | 0.527 | 0.519 | 0.325
9 | NCI-H1944 | 0.358 | 0.365 | 0.356 | 0.37 | 0.316 | 0.332 | 0.398 | 0.336 | 0.268 | 0.25 | 0.355 | 0.334 | 0.343 | 0.324 | 0.418 | 0.474 | 0.456 | 0.527 | 0.476
10 | LK-2 | 0.64 | 0.444 | 0.621 | 0.477 | 0.612 | 0.62 | 0.486 | 0.529 | 0.518 | 0.285 | 0.504 | 0.563 | 0.47 | 0.308 | 0.306 | 0.267 | 0.256 | 0.259 | 0.243
11 | HCC-15 | 0.735 | 0.76 | 0.713 | 0.742 | 0.527 | 0.714 | 0.663 | 0.626 | 0.188 | 0.266 | 0.657 | 0.839 | 0.665 | 0.468 | 0.606 | 0.646 | 0.608 | 0.691 | 0.429
12 | NCI-H838 | 0.481 | 0.446 | 0.45 | 0.362 | 0.311 | 0.439 | 0.613 | 0.72 | 0.461 | 0.237 | 0.446 | 0.398 | 0.414 | 0.277 | 0.437 | 0.437 | 0.413 | 0.5 | 0.371
13 | HOP-62 | 0.792 | 0.82 | 0.698 | 0.876 | 0.499 | 0.578 | 0.743 | 0.603 | 0.139 | 0.0745 | 0.849 | 0.734 | 1.08 | 0.607 | 0.193 | 0.227 | 0.243 | 0.313 | 0.412
14 | NCI-H322M | 0.508 | 0.542 | 0.474 | 0.585 | 0.484 | 0.513 | 0.595 | 0.561 | 0.559 | 0.295 | 0.571 | 0.483 | 0.473 | 0.445 | 0.708 | 0.64 | 0.695 | 0.69 | 0.64
15 | NCI-H1395 | 0.699 | 0.604 | 0.569 | 0.587 | 0.57 | 0.598 | 0.758 | 0.64 | 0.67 | 0.487 | 0.591 | 0.64 | 0.542 | 0.494 | 0.719 | 0.672 | 0.75 | 0.788 | 0.849
